Measured values: US10245275B2 (ViiV HEALTHCARE UK (NO.4) LIMITED, priority 2014, dated 2019)
Read-outs that look alike come from different tables or passages of the source.

Tests used:
[1] = system: WT (wild-type HIV virus; recombinant NL4-3 virus); experiment: microbe, parasite or virus in culture; format: cell-based, HIV-1
Experimental: (§1) MT-2 cells and 293T cells were obtained from the NIH AIDS Research and Reference Reagent Program. MT-2 cells were propagated in RPMI 1640 media supplemented with 10% heat-inactivated fetal bovine serum, […]. The 293T cells were propagated in DMEM media supplemented with 10% heat-inactivated fetal bovine serum (FBS), 100 units/mL penicillin G and 100 μg/mL streptomycin. […] A recombinant NL4-3 virus, in which a section of the nef gene from NL4-3 was replaced with the Renilla luciferase gene, was used as a reference virus. In addition, residue Gag P373 was converted to P373S. […] Transfections were performed in 293T cells using LipofectAMINE PLUS from Invitrogen (Carlsbad, Calif.), according to manufacturer's instruction. The virus was titered in MT-2 cells using luciferase enzyme activity as a marker. Luciferase was quantitated using the Dual Luciferase kit from Promega (Madison, Wis.), with modifications to the manufacturer's protocol. The diluted Passive Lysis solution was pre-mixed with the re-suspended Luciferase Assay Reagent and the re-suspended Stop & Glo Substrate (2:1:1 ratio). Fifty (50) μL of the mixture was added to each aspirated well on assay plates and luciferase activity was measured immediately on a Wallac TriLux (Perkin-Elmer). Antiviral activities of inhibitors toward the recombinant virus were quantified by measuring luciferase activity in cells infected for 4-5 days with NLRluc recombinants in the presence serial dilutions of the inhibitor.
WT refers to wild-type HIV virus. […]

[2] = system: HIV-1 NL4-3 gag A364V virus; experiment: microbe, parasite or virus in culture; format: cell-based
Experimental: as §1
Both recombinant viruses were used as described above in the HIV cell culture assay for the NL4-3 virus.

[3] = Human immunodeficiency virus 1, NL43, MT2, read-out: WT (EC50, uM), Table 1 regular screen, class symbol
[4] = Human immunodeficiency virus 1, NL43, MT2, read-out: A364V (EC50, uM), Table 1 regular screen, class symbol
[5] = Human immunodeficiency virus 1, NL43, MT2, read-out: WT (EC50, uM), Table 1 regular screen, MT-2 cells, luciferase readout
[6] = Human immunodeficiency virus 1, NL43, MT2, read-out: A364V (EC50, uM), Table 1 regular screen, MT-2 cells, luciferase readout

Structure (SMILES) | EC50 [1, 3] | EC50 [2, 4] | EC50 [1, 5] | EC50 [2, 6]
C=C(C)[C@@H]1CC[C@]2(NCC(=O)N3CCN(S(C)(=O)=O)CC3)CC[C@]3(C)[C@H](CC[C@@H]4[C@@]5(C)CC=C(C6=CC[C@](CF)(C(=O)O)CC6)C(C)(C)[C@@H]5CC[C@]43C)[C@@H]12 [Example 33, (S)-1-(fluoromethyl)-4-((1R,3aS,5aR,5bR,7aR,11aS,11bR,13aR,13bR)-5a,5b,8,8,11a-pentamethyl-3a-((2-(4-(methylsulfonyl)piperazin-1-yl)-2-oxoethyl)amino)-1-(prop-1-en-2-yl)-2,3,3a,4,5,5a,5b,6,7,7a,8,11,11a,11b,12,13,13a,13b-octadecahydro-1H-cyclopenta[a]chrysen-9-yl)cyclohex-3-enecarboxylic acid] | < 0.05 µM | > 0.05 µM | – | –
C=C(C)[C@@H]1CC[C@]2(NCCN3CC(C)S(=O)(=O)C(C)C3)CC[C@]3(C)[C@H](CC[C@@H]4[C@@]5(C)CC=C(C6=CC[C@](CF)(C(=O)O)CC6)C(C)(C)[C@@H]5CC[C@]43C)[C@@H]12 (stereo partly drawn) [Example 25, (1S)-4-((1R,3aS,5aR,5bR,7aR,11aS,11bR,13aR,13bR)-3a-((2-(2,6-dimethyl-1,1-dioxidothiomorpholino)ethyl)amino)-5a,5b, 8,8,11a-pentamethyl-1-(prop-1-en-2-yl)-2,3,3a,4,5,5a,5b,6,7,7a,8,11,11a,11b,12,13,13a,13b-octadecahydro-1H-cyclopenta[a]chrysen-9-yl)-1-(fluoromethyl)cyclohex-3-enecarboxylic acid] | < 0.05 µM | > 0.05 µM | – | –
C=C(C)[C@@H]1CC[C@]2(NCC(=O)N3CCC(S(C)(=O)=O)CC3)CC[C@]3(C)[C@H](CC[C@@H]4[C@@]5(C)CC=C(C6=CC[C@](CF)(C(=O)O)CC6)C(C)(C)[C@@H]5CC[C@]43C)[C@@H]12 [Example 31, (S)-1-(fluoromethyl)-4-((1R,3aS,5aR,5bR,7aR,11aS,11bR,13aR,13bR)-5a,5b, 8,8,11a-pentamethyl-3a-((2-(4-(methylsulfonyl)piperidin-1-yl)-2-oxoethyl)amino)-1-(prop-1-en-2-yl)-2,3,3a,4,5,5a,5b,6,7,7a,8,11,11a,11b,12,13,13a,13b-octadecahydro-1H-cyclopenta[a]chrysen-9-yl)cyclohex-3-enecarboxylic acid] | < 0.05 µM | > 0.05 µM | – | –
C=C(C)[C@@H]1CC[C@]2(NCCC3(O)CCC3)CC[C@]3(C)[C@H](CC[C@@H]4[C@@]5(C)CC=C(C6=CC[C@](CF)(C(=O)O)CC6)C(C)(C)[C@@H]5CC[C@]43C)[C@@H]12 [Example 2-9, (S)-1-(fluoromethyl)-4-((1R,3aS,5aR,5bR,7aR,11aS,11bR,13aR,13bR)-3a-((2-(1-hydroxycyclobutyl)ethyl)amino)-5a,5b,8,8,11a-pentamethyl-1-(prop-1-en-2-yl)-2,3,3a,4,5,5a,5b,6,7,7a,8,11,11a,11b,12,13,13a,13b-octadecahydro-1H-cyclopenta[a]chrysen-9-yl)cyclohex-3-enecarboxylic acid] | < 0.05 µM | > 0.05 µM | – | –
C=C(C)[C@@H]1CC[C@]2(C(=O)NCCN3CCS(=O)(=O)CC3)CC[C@]3(C)[C@H](CC[C@@H]4[C@@]5(C)CC=C(C6=CC[C@@](CF)(C(=O)O)CC6)C(C)(C)[C@@H]5CC[C@]43C)[C@@H]12 [Example 38, (R)-4-((1R,3aS,5aR,5bR,7aR,11aS,11bR,13aR,13bR)-3a-((2-(1,1-dioxidothiomorpholino)ethyl)carbamoyl)-5a,5b,8,8,11a-pentamethyl-1-(prop-1-en-2-yl)-2,3,3a,4,5,5a,5b,6,7,7a,8,11,11a,11b,12,13,13a,13b-octadecahydro-1H-cyclopenta[a]chrysen-9-yl)-1-(fluoromethyl)cyclohex-3-enecarboxylic acid] | < 0.05 µM | < 0.05 µM | – | –
C=C(C)[C@@H]1CC[C@]2(NCCN3CCS(=O)(=O)CC(C)C3)CC[C@]3(C)[C@H](CC[C@@H]4[C@@]5(C)CC=C(C6=CC[C@@](CF)(C(=O)O)CC6)C(C)(C)[C@@H]5CC[C@]43C)[C@@H]12 (stereo partly drawn) [Example 26, (1R)-1-(fluoromethyl)-4-((1R,3aS,5aR,5bR,7aR,11aS,11bR,13aR,13bR)-5a,5b,8,8,11a-pentamethyl-3a-((2-(6-methyl-1,1-dioxido-1,4-thiazepan-4-yl)ethyl)amino)-1-(prop-1-en-2-yl)-2,3,3a,4,5,5a,5b,6,7,7a,8,11,11a,11b,12,13,13a,13b-octadecahydro-1H-cyclopenta[a]chrysen-9-yl)cyclohex-3-enecarboxylic acid] | < 0.05 µM | > 0.05 µM | – | –
C=C(C)[C@@H]1CC[C@]2(NCCC3(O)CCC(OS(C)(=O)=O)CC3)CC[C@]3(C)[C@H](CC[C@@H]4[C@@]5(C)CC=C(C6=CC[C@](CF)(C(=O)O)CC6)C(C)(C)[C@@H]5CC[C@]43C)[C@@H]12 (stereo partly drawn) [Example 2-22, (S)-1-(fluoromethyl)-4-((1R,3aS,5aR,5bR,7aR,11aS,11bR,13aR,13bR)-3a-((2-(1-hydroxy-4-((methylsulfonyl)oxy)cyclohexyl)ethyl)amino)-5a,5b,8,8,11a-pentamethyl-1-(prop-1-en-2-yl)-2,3,3a,4,5,5a,5b,6,7,7a,8,11,11a,11b,12,13,13a,13b-octadecahydro-1H-cyclopenta[a]chrysen-9-yl)cyclohex-3-enecarboxylic acid] | – | – | 0.00315 µM | 0.107 µM
C=C(C)[C@@H]1CC[C@]2(NCC(=O)N3CCCS(=O)(=O)CC3)CC[C@]3(C)[C@H](CC[C@@H]4[C@@]5(C)CC=C(C6=CC[C@](CF)(C(=O)O)CC6)C(C)(C)[C@@H]5CC[C@]43C)[C@@H]12 [Example 34, (S)-4-((1R,3aS,5aR,5bR,7aR,11aS,11bR,13aR,13bR)-3a-((2-(1,1-dioxido-1,4-thiazepan-4-yl)-2-oxoethyl)amino)-5a,5b, 8,8,11a-pentamethyl-1-(prop-1-en-2-yl)-2,3,3a,4,5,5a,5b,6,7,7a,8,11,11a,11b,12,13,13a,13b-octadecahydro-1H-cyclopenta[a]chrysen-9-yl)-1-(fluoromethyl)cyclohex-3-enecarboxylic acid] | < 0.05 µM | < 0.05 µM | – | –
C=C(C)[C@@H]1CC[C@]2(NCC(=O)N3CCS(=O)(=O)C3)CC[C@]3(C)[C@H](CC[C@@H]4[C@@]5(C)CC=C(C6=CC[C@](CF)(C(=O)O)CC6)C(C)(C)[C@@H]5CC[C@]43C)[C@@H]12 [Example 35, (S)-4-((1R,3aS,5aR,5bR,7aR,11aS,11bR,13aR,13bR)-3a-((2-(1,1-dioxidothiazolidin-3-yl)-2-oxoethyl)amino)-5a,5b,8,8,11a-pentamethyl-1-(prop-1-en-2-yl)-2,3,3a,4,5,5a,5b,6,7,7a,8,11,11a,11b,12,13,13a,13b-octadecahydro-1H-cyclopenta[a]chrysen-9-yl)-1-(fluoromethyl)cyclohex-3-enecarboxylic acid] | – | – | 0.00157 µM | 0.157 µM
C=C(C)[C@@H]1CC[C@]2(NCCC(O)(CC)CC)CC[C@]3(C)[C@H](CC[C@@H]4[C@@]5(C)CC=C(C6=CC[C@](CF)(C(=O)O)CC6)C(C)(C)[C@@H]5CC[C@]43C)[C@@H]12 [Example 2-4, (S)-4-((1R,3aS,5aR,5bR,7aR,11aS,11bR,13aR,13bR)-3a-((3-ethyl-3-hydroxypentyl)amino)-5a,5b,8,8,11a-pentamethyl-1-(prop-1-en-2-yl)-2,3,3a,4,5,5a,5b,6,7,7a,8,11,11a,11b,12,13,13a,13b-octadecahydro-1H-cyclopenta[a]chrysen-9-yl)-1-(fluoromethyl)cyclohex-3-enecarboxylic acid] | < 0.05 µM | > 0.05 µM | – | –
